In US8324390B2, “Tetrazole-substituted anthranilamides as pesticides” (Bayer CropScience AG, priority 2008, dated 2012):
Like-named read-outs stand apart in the source and are kept apart here.

What was measured:
[1] = log P determination by HPLC (EEC Directive 79/831 Annex V.A8); assay type: physicochemical
Method: The measurements were carried out using an Agilent 1100 LC system with a 50*4.6 Zorbax Eclipse C18 1.8 μm column (oven temperature 55° C., flow rate 2.0 ml/min).
The following mobile phases were used:
Mobile phase A: acetonitrile+1000 μl of formic acid/l
Mobile phase B: Millipore water+900 μl of formic acid/l

[2] = test system: caterpillars of the armyworm (Spodoptera frugiperda); experiment: Spodoptera frugiperda test (SPODFR spray treatment); assay type: in vivo; conditions: Spodoptera frugiperda, foliar, read-out: effect in % (caterpillars killed)
From the text: Solvent: 78.0 parts by weight of acetone

[3] = test system: larvae of the mustard beetle (Phaedon cochleariae); experiment: Phaedon test (PHAECO spray treatment); conditions: Phaedon cochleariae, in Brassica rapa, foliar, read-out: effect in % (beetle larvae killed)
[4] = reversed-phase HPLC, Zorbax Eclipse C18 column, by HPLC according to EEC Directive 79/831 Annex V.A8, read-out: log P
[5] = application rate 100 g/ha, maize leaf discs

Row | Compound | chromatographic logP [1, 4] | pest or weed control at 100 g/ha [2, 5] | pest or weed control at 100 g/ha [3] | chromatographic logP ([1]; log P) | pest or weed control at 100 g/ha ([2]; in Zea mays)
1 | Cc1cc(I)cc(C(=O)NC(C)C2CC2)c1NC(=O)c1cc(Cn2nnc(C(F)(C(F)(F)F)C(F)(F)F)n2)nn1-c1ncccc1Cl (stereo not drawn) [Example 378] | 4.74 | ≥ 80% | ≥ 80% | – | –
2 | Cc1cc(I)cc(C(=O)NC2CC2)c1NC(=O)c1cc(Cn2nnc(C(F)(C(F)(F)F)C(F)(F)F)n2)nn1-c1ncccc1Cl [Example 379] | – | – | ≥ 80% | 4.18 | ≥ 80%
3 | CCNC(=O)c1cc(I)cc(C)c1NC(=O)c1cc(Cn2nnc(C(F)(C(F)(F)F)C(F)(F)F)n2)nn1-c1ncccc1Cl [Example 380] | – | – | ≥ 80% | 4.2 | ≥ 80%
4 | Cc1cc(I)cc(C(=O)NC(C)C)c1NC(=O)c1cc(Cn2nnc(C(F)(C(F)(F)F)C(F)(F)F)n2)nn1-c1ncccc1Cl [Example 381] | – | – | ≥ 80% | 4.44 | ≥ 80%
5 | Cc1cc(I)cc(C(N)=O)c1NC(=O)c1cc(Cn2nnc(C(F)(C(F)(F)F)C(F)(F)F)n2)nn1-c1ncccc1Cl [Example 382] | – | – | ≥ 80% | 3.67 | ≥ 80%
6 | Cc1cc(I)cc(C(=O)NCC2CC2)c1NC(=O)c1cc(Cn2nnc(C(F)(C(F)(F)F)C(F)(F)F)n2)nn1-c1ncccc1Cl [Example 383] | 4.51 | ≥ 80% | ≥ 80% | – | –
7 | Cc1cc(I)cc(C(=O)NCC#N)c1NC(=O)c1cc(Cn2nnc(C(F)(C(F)(F)F)C(F)(F)F)n2)nn1-c1ncccc1Cl [Example 384] | – | – | ≥ 80% | 3.82 | ≥ 80%
8 | CNC(=O)c1cc(Cl)cc(Cl)c1NC(=O)c1cc(Cn2nnc(C(F)(C(F)(F)F)C(F)(F)F)n2)nn1-c1ncccc1Cl [Example 386] | – | – | ≥ 80% | 3.65 | ≥ 80%
9 | CC(NC(=O)c1cc(Cl)cc(Cl)c1NC(=O)c1cc(Cn2nnc(C(F)(C(F)(F)F)C(F)(F)F)n2)nn1-c1ncccc1Cl)C1CC1 (stereo not drawn) [Example 387] | 4.42 | ≥ 80% | ≥ 80% | – | –
10 | CCNC(=O)c1cc(Cl)cc(Cl)c1NC(=O)c1cc(Cn2nnc(C(F)(C(F)(F)F)C(F)(F)F)n2)nn1-c1ncccc1Cl [Example 388] | – | – | ≥ 80% | 3.89 | ≥ 80%
11 | CC(C)NC(=O)c1cc(Cl)cc(Cl)c1NC(=O)c1cc(Cn2nnc(C(F)(C(F)(F)F)C(F)(F)F)n2)nn1-c1ncccc1Cl [Example 389] | – | – | ≥ 80% | 4.12 | ≥ 80%
12 | CC(C)(C)NC(=O)c1cc(Cl)cc(Cl)c1NC(=O)c1cc(Cn2nnc(C(F)(C(F)(F)F)C(F)(F)F)n2)nn1-c1ncccc1Cl [Example 390] | 4.47 | ≥ 80% | ≥ 80% | – | –
13 | O=C(NCC1CC1)c1cc(Cl)cc(Cl)c1NC(=O)c1cc(Cn2nnc(C(F)(C(F)(F)F)C(F)(F)F)n2)nn1-c1ncccc1Cl [Example 392] | 4.17 | ≥ 80% | ≥ 80% | – | –
14 | N#CCNC(=O)c1cc(Cl)cc(Cl)c1NC(=O)c1cc(Cn2nnc(C(F)(C(F)(F)F)C(F)(F)F)n2)nn1-c1ncccc1Cl [Example 393] | – | – | ≥ 80% | 3.59 | ≥ 80%
15 | CSC[C@H](C)NC(=O)c1cc(Cl)cc(Cl)c1NC(=O)c1cc(Cn2nnc(C(F)(C(F)(F)F)C(F)(F)F)n2)nn1-c1ncccc1Cl [Example 394] | 4.3 | ≥ 80% | ≥ 80% | – | –
16 | COCCNC(=O)c1cc(C#N)cc(C)c1NC(=O)c1cc(Cn2nnc(C(F)(C(F)(F)F)C(F)(F)F)n2)nn1-c1ncccc1Cl [Example 395] | 3.48 | ≥ 80% | ≥ 80% | – | –
